Holding throughout (format): functional
Details in all cases: Mus musculus

Test [1] relates to B16. In words: Inhibition of invasion of B16 melanoma cells by 1 uM concentration of the compound.
Test [2] relates to B16. Briefly: Inhibition of invasion of B16 melanoma cells by 10 uM concentration of the compound.
The test system of test [3] is B16. Briefly: Inhibition of invasion of B16 melanoma cells by 0.1 uM concentration of the compound.
For test [4], the system named is B16. In words: Inhibition of invasion of B16 melanoma cells by 100 uM concentration of the compound.
The test system of test [5] is B16. Briefly: Inhibition of lung metastasis of B16 melanoma cells in mice after 20 mg/kg po administration of the compound.
For test [6], the system named is B16. Briefly: Inhibition of invasion of B16 melanoma cells by 0.01 uM concentration of the compound.

For orientation: inhibition means the drop in the measured response relative to a control, in per cent. The term inhibition in vivo denotes the percentage by which the read-out fell short of the control. Read a high inhibition in vivo as a response far below the control.

For `C[C@@H]1CC[C@@H](c2ccoc2)N2C[C@@]3(CC[C@@H]12)C[S+]([O-])[C@]1(CC[C@H]2[C@H](C)CC[C@@H](c4ccoc4)N2C1)C3` (stereo partly drawn), in the test with B16 [1], the inhibition at 1 µM came to 10.2%. The inhibition at 10 µM in the test with B16 [2] is 9.2%. The inhibition at 0.1 µM in the test on B16 [3] is -8.1%. Also, the inhibition at 100 µM with B16 [4] turned out to be 0%.
For `C[C@@H]1CC[C@@H](c2ccoc2)N2C[C@@]3(CC[C@@H]12)CS[C@@]1(CC[C@H]2[C@H](C)CC[C@@H](c4ccoc4)N2[C@@H]1O)C3`, the inhibition in vivo at 20 mg/kg in the test with B16 [5] was 94%. Moreover, the inhibition at 0.01 µM with B16 [6] was determined as 50.9%. For the same compound, the inhibition at 1 µM with B16 [1] amounted to 66.5%. Further, the inhibition at 10 µM in the test with B16 [2] was 84.8%. The inhibition at 0.1 µM with B16 [3] came to 57.5%. For the same compound, the inhibition at 100 µM in the test with B16 [4] turned out to be 86.8%.
Consider `C[C@H]1CC[C@H]2[C@H](C)CC[C@@H](c3ccoc3)N2C1`, for which the inhibition at 1 µM in the test with B16 [1] was found to be 14%. Also, the inhibition at 10 µM in the test with B16 [2] came out at 28.5%. Also, in the test with B16 [3], the inhibition at 0.1 µM was -5.1%. In addition, the inhibition at 100 µM in the test on B16 [4] stood at 19.1%.
Take `C[C@@H]1CC[C@@H](c2ccoc2)N2[C@H]1CC[C@@]1(CS[C@@]3(CC[C@H]4[C@H](C)CC[C@@H](c5ccoc5)N4[C@@H]3O)C1)[C@H]2O`: the inhibition at 0.01 µM in the test on B16 [6] is 40.3%. Also, the inhibition at 1 µM in the test on B16 [1] worked out at 68.5%. For the same compound, the inhibition at 10 µM with B16 [2] was determined as 83.2%. Moreover, the inhibition at 0.1 µM in the test on B16 [3] came out at 43.1%. Further, the inhibition at 100 µM in the test with B16 [4] amounted to 86.6%.
Turning to `C[C@@H]1CC[C@@H](c2ccoc2)N2C[C@]3(CC[C@@H]12)C[S+]([O-])[C@]1(CC[C@H]2[C@H](C)CC[C@@H](c4ccoc4)N2C1)C3` (stereo partly drawn), the inhibition at 1 µM in the test with B16 [1] was 18.5%. Besides, in the test on B16 [2], the inhibition at 10 µM was 12.8%. Also, the inhibition at 0.1 µM in the test with B16 [3] was 10.6%. Besides, in the test with B16 [4], the inhibition at 100 µM was found to be 15.7%.
The matching figures for `C[C@H]1CC[C@H]2[C@H](C)CC[C@@H](c3ccoc3)[N@@+]2([O-])C1`: 34.7%, 41.4%, 19.6% and 47.2%.
The matching figures for `C[C@@H]1CC[C@@H](c2ccoc2)N2C[C@@]3(CC[C@@H]12)C[S+]([O-])[C@@]1(CC[C@H]2[C@H](C)CC[C@@H](c4ccoc4)N2C1)C3` (stereo partly drawn): 38.3%, 42.2%, 16.9% and 32.5%.
Regarding `C[C@@H]1CC[C@@H](c2ccoc2)N2C[C@@]3(CC[C@@H]12)CS[C@]1(CC[C@H]2[C@H](C)CC[C@@H](c4ccoc4)N2[C@@H]1O)C3` [6-HYDROXYTHIONUPHLUTINE B], the inhibition at 0.01 µM with B16 [6] came out at 5.9%. The inhibition at 1 µM in the test with B16 [1] stood at 62.7%. For the same compound, in the test with B16 [2], the inhibition at 10 µM was found to be 61.4%. The inhibition at 0.1 µM in the test with B16 [3] was determined as 31.6%. Besides, the inhibition at 100 µM in the test with B16 [4] amounted to 47.1%.
On to `C[C@@H]1CC[C@H]2[C@H](C)CC[C@@H](c3ccoc3)N2C1` [(-)-7-EPI-DEOXYNUPHARIDINE], for which the inhibition at 1 µM in the test with B16 [1] turned out to be 25.3%. The inhibition at 10 µM in the test with B16 [2] amounted to 20.9%. Moreover, in the test on B16 [3], the inhibition at 0.1 µM stood at 5.1%. Moreover, the inhibition at 100 µM with B16 [4] came out at 23%.
In turn, `COc1cc(C=CC(=O)CC(=O)/C=C/c2ccc(O)c(OC)c2)ccc1O` [CURCUMIN] displayed an inhibition in vivo at 20 mg/kg in the test on B16 [5] of 87%.
For `C[C@@H]1CC[C@@H](c2ccoc2)N2C[C@]3(CC[C@@H]12)CS[C@]1(CC[C@H]2[C@H](C)CC[C@@H](c4ccoc4)N2C1)C3` [NEOTHIOBINUPHARIDINE], the inhibition at 1 µM with B16 [1] was 18.9%. For the same compound, the inhibition at 10 µM in the test with B16 [2] was found to be 33.2%. In addition, in the test with B16 [3], the inhibition at 0.1 µM is 11.9%. For the same compound, in the test with B16 [4], the inhibition at 100 µM was found to be 28.3%.
The matching figures for `C[C@@H]1CC[C@@H](c2ccoc2)N2C[C@](C)(O)CC[C@@H]12` [NUPHAROLUTINE]: 1.7%, 16.8%, 25.5% and -0.6%.
For `C[C@@H]1CC[C@@H](c2ccoc2)N2C[C@@]3(CC[C@@H]12)CS[C@@]1(CC[C@H]2[C@H](C)CC[C@@H](c4ccoc4)N2C1)C3` [THIOBINUPHARIDINE] the same measures were 9.7%, 15.6%, 5.2% and 22.7%.

Values taken from ChEMBL document CHEMBL1136494, “Potent anti-metastatic activity of dimeric sesquiterpene thioalkaloids from the rhizome of Nuphar pumilum” (2003).
